Measured values taken from publication PMC7395068, “The evolution of strategies to minimise the risk of human drug-induced liver injury (DILI) in drug discovery and development” (Archives of Toxicology, 2020).
Like-named read-outs stand apart in the source and are kept apart here.

What was measured:
hLiMTs [1] = conditions: cited from earlier work
[2] = read-out: Human plasma Cmax; total plasma Cmax.tot, median of 9 literature references; cited from earlier work
hLiMTs [3] = test: Combined HCI (HCS) and cellular ATP 3D assay in hLiMTs; conditions: for DILI prediction hLiMTs (HCS-MEC): Microtissue model structural based (HCI), combined HCS and ATP, MEC < 25 × Cmax.tot cut-off; for hLiMTs <25x Avg Cmax ATP / hLiMTs <100x Avg Cmaxu ATP: ATP endpoint; for hLiMTs <25x Avg Cmax ATP / hLiMTs <25x Avg Cmax HCS / hLiMTs <25x Avg Cmax All: cut-off <25x Avg Cmax; for hLiMTs <100x Avg Cmaxu ATP / hLiMTs <100x Avg Cmaxu HCS / hLiMTs <100x Avg Cmaxu All: cut-off <100x Avg Cmaxu; for hLiMTs <25x Avg Cmax HCS / hLiMTs <100x Avg Cmaxu HCS: HCS endpoints; for hLiMTs <25x Avg Cmax All: all endpoints (ATP and HCS); for hLiMTs Cmax max All / hLiMTs Cmax min All / hLiMTs <10 uM All / hLiMTs <100x Avg Cmaxu All: all endpoints; for hLiMTs Cmax max All: Cmax max used; for hLiMTs Cmax min All: Cmax min used; for hLiMTs <10 uM All: cut-off <10 uM
HepaRG spheroids = test: Combined HCI (HCS) and cellular ATP 3D assay in HepaRG spheroids; conditions: for HepaRG <25x Avg Cmax ATP / HepaRG <100x Avg Cmaxu ATP: ATP endpoint; for HepaRG <25x Avg Cmax ATP / HepaRG <25x Avg Cmax HCS / HepaRG <25x Avg Cmax All: cut-off <25x Avg Cmax; for HepaRG <100x Avg Cmaxu ATP / HepaRG <100x Avg Cmaxu HCS / HepaRG <100x Avg Cmaxu All: cut-off <100x Avg Cmaxu; for HepaRG <25x Avg Cmax HCS / HepaRG <100x Avg Cmaxu HCS: HCS endpoints; for HepaRG <25x Avg Cmax All: all endpoints (ATP and HCS); for HepaRG Cmax max All / HepaRG Cmax min All / HepaRG <10 uM All / HepaRG <100x Avg Cmaxu All: all endpoints; for HepaRG Cmax max All: Cmax max used; for HepaRG Cmax min All: Cmax min used; for HepaRG <10 uM All: cut-off <10 uM; for minimal effective concentration / AC50: Homo sapiens; for HepaRG <25x Avg Cmax ATP / HepaRG <100x Avg Cmaxu ATP / HepaRG <25x Avg Cmax HCS / HepaRG <100x Avg Cmaxu HCS / HepaRG <25x Avg Cmax All / HepaRG Cmax max All / HepaRG Cmax min All / HepaRG <10 uM All / HepaRG <100x Avg Cmaxu All / minimal effective concentration / AC50: HepaRG; for DILI prediction HepaRG spheroids (HCS-MEC): Microtissue model structural based (HCI), combined HCS and ATP, MEC < 25 × Cmax.tot cut-off
PHH = conditions: cited from earlier work
[4] = Plasma free fraction (fu) and unbound Cmax (Cmax,u); format: in vitro ADME, human; conditions: unbound plasma Cmax
Method: The prediction of DILI severity was evaluated further using the 3D combined HCI assays using plasma-free fraction. The majority of fu values were obtained from literature, when unavailable in-house prediction was utilised. Unbound plasma Cmax concentrations (Cmax,u) were derived by multiplying total plasma Cmax with the corresponding free fraction (fu) for each compound.

[5] = cited from earlier work
[6] = test system: HepG2 C3A spheroid, BSEP, Glu/Gal in HepG2 cells, bioactivation; conditions: cited from earlier work; for Bayesian Machine Learning DILI prediction, Williams (2019): Bayesian modeling, ref Williams et al. 2019
[7] = cited from earlier work; remark: listed apart in the source
[8] = plasma free fraction; cited from earlier work
[9] = test system: THLE or HepG2 cells, isolated mitochondria, BSEP; conditions: cited from earlier work
human hepatocytes = conditions: cited from earlier work
[10] = In vitro Assay, ref Proctor 2017
[11] = Modeled in vitro assays (cytotoxicity, mitochondrial dysfunction, BSEP), ref Aleo et al. 2019

CNC1(C)C2CCC(C2)C1(C)C (stereo not drawn) [mecamylamine]
hLiMTs ATP <100uM (hLiMTs [1]; [10]): -VE
hLiMTs/100xCmax, Proctor (2017) (hLiMTs [1]; hLiMTs, ATP, IC50 < 100 × Cmax.tot, ref Proctor et al. 2017): -VE
hLiMTs/100uM, Proctor (2017) (hLiMTs [1]; hLiMTs, ATP, IC50 threshold 100 µM, ref Proctor et al. 2017): -VE
Cmax [2]: 142 nM
DILI prediction hLiMTs (HCS-MEC) (hLiMTs [3]): -VE
hLiMTs <25x Avg Cmax ATP (hLiMTs [3]): -ve
hLiMTs <100x Avg Cmaxu ATP (hLiMTs [3]): -ve
hLiMTs <25x Avg Cmax HCS (hLiMTs [3]): -ve
hLiMTs <100x Avg Cmaxu HCS (hLiMTs [3]): -ve
hLiMTs <25x Avg Cmax All (hLiMTs [3]): -ve
hLiMTs Cmax max All (hLiMTs [3]): -ve
hLiMTs Cmax min All (hLiMTs [3]): -ve
hLiMTs <10 uM All (hLiMTs [3]): -ve
hLiMTs <100x Avg Cmaxu All (hLiMTs [3]): -ve
HepaRG <25x Avg Cmax ATP (HepaRG spheroids): -ve
HepaRG <100x Avg Cmaxu ATP (HepaRG spheroids): -ve
HepaRG <25x Avg Cmax HCS (HepaRG spheroids): -ve
HepaRG <100x Avg Cmaxu HCS (HepaRG spheroids): -ve
HepaRG <25x Avg Cmax All (HepaRG spheroids): -ve
HepaRG Cmax max All (HepaRG spheroids): -ve
HepaRG Cmax min All (HepaRG spheroids): -ve
HepaRG <10 uM All (HepaRG spheroids): -ve
HepaRG <100x Avg Cmaxu All (HepaRG spheroids): -ve
minimal effective concentration (HepaRG spheroids; read-out: HCS endpoint MEC): 12.2 µM
DILI prediction HepaRG spheroids (HCS-MEC) (HepaRG spheroids): -VE
PHH/100xCmax, Proctor (2017) (PHH; 2D PHH, ATP, IC50 < 100 × Cmax.tot, ref Proctor et al. 2017): -VE
PHH/100uM, Proctor (2017) (PHH; 2D PHH, ATP, IC50 threshold 100 µM, ref Proctor et al. 2017): -VE
PHH ATP <100uM (PHH; [10]): -VE
Human plasma Cmax,u [4]: 85 nM
Assigned DILI category ([5]; Chen et al. 2016 or literature alignment, ref Chen et al. 2016): 1
In vivo DILI ([5]; […]): -VE
In vivo DILI ([5]; ref Proctor 2017): -VE
In vivo DILI ([5]; ref Williams 2019): -VE
Bayesian Machine Learning DILI prediction, Williams (2019) [6]: -VE
Bayesian Machine Learning ([6]; In vitro Assay, ref Williams 2019): -VE
DILI severity category (Chen et al. [2016]) ([7]; LTKB DILIrank category, ref Chen et al. 2016): No
DILI severity category (Chen 2016) ([7]; human DILI classification, LTKB DILIrank, ref Chen et al. 2016): No
DILI severity category ([7]; human DILI severity, ref Chen et al.): No
DILI +VE (5-8), DILI -VE (-4) ([7]; ref Chen 2016): -VE
DILI severity category ([7]; ref Chen 2016): vNo-DILI-Concern
fu [8]: 0.600

Cc1ccc(N(CC2=NCCN2)c2cccc(O)c2)cc1 [phentolamine]
Cmax [2]: 75 nM
minimal effective concentration (hLiMTs [3]; Homo sapiens, read-out: HCS endpoint MEC): 87.4 µM
DILI prediction hLiMTs (HCS-MEC) (hLiMTs [3]): -VE
hLiMTs <25x Avg Cmax ATP (hLiMTs [3]): -ve
hLiMTs <100x Avg Cmaxu ATP (hLiMTs [3]): -ve
hLiMTs <25x Avg Cmax HCS (hLiMTs [3]): -ve
hLiMTs <100x Avg Cmaxu HCS (hLiMTs [3]): -ve
hLiMTs <25x Avg Cmax All (hLiMTs [3]): -ve
hLiMTs Cmax max All (hLiMTs [3]): -ve
hLiMTs Cmax min All (hLiMTs [3]): -ve
hLiMTs <10 uM All (hLiMTs [3]): -ve
hLiMTs <100x Avg Cmaxu All (hLiMTs [3]): -ve
HepaRG <25x Avg Cmax ATP (HepaRG spheroids): -ve
HepaRG <100x Avg Cmaxu ATP (HepaRG spheroids): -ve
HepaRG <25x Avg Cmax HCS (HepaRG spheroids): -ve
HepaRG <100x Avg Cmaxu HCS (HepaRG spheroids): -ve
HepaRG <25x Avg Cmax All (HepaRG spheroids): -ve
HepaRG Cmax max All (HepaRG spheroids): -ve
HepaRG Cmax min All (HepaRG spheroids): -ve
HepaRG <10 uM All (HepaRG spheroids): -ve
HepaRG <100x Avg Cmaxu All (HepaRG spheroids): -ve
AC50 (HepaRG spheroids; read-out: ATP endpoint AC50): 35.2 µM
minimal effective concentration (HepaRG spheroids; read-out: ATP endpoint MEC): 29.3 µM
AC50 (HepaRG spheroids; read-out: HCS endpoint AC50): 63 µM
minimal effective concentration (HepaRG spheroids; read-out: HCS endpoint MEC): 18.1 µM
DILI prediction HepaRG spheroids (HCS-MEC) (HepaRG spheroids): -VE
Human plasma Cmax,u [4]: 34 nM
Partition Hybrid HRM Score ([9]; In vitro Assay, ref Aleo 2019): -VE
Ro2 Hybrid HRM Score ([9]; In vitro Assay, ref Aleo 2019): -VE
Partition Hybrid HRM Score ≥4, Aleo (2019) [9, 11]: -VE
Partition Hybrid HRM Score ≥8, Aleo (2019) [9, 11]: -VE
Rule of Two hybrid HRM Score ≥3, Aleo (2019) [9, 11]: -VE
Rule of Two hybrid HRM Score ≥8, Aleo (2019) [9, 11]: -VE
Bayesian Machine Learning DILI prediction, Williams (2019) [6]: -VE
fu [8]: 0.460
Structural based (HCI) (human hepatocytes; In vitro Assay, ref Xu 2008): -VE
DILI in vitro assay prediction, Xu (2008) (human hepatocytes; Structural based (HCI), human hepatocytes, ref Xu et al. 2008): -VE
